According to US20230111310A1, “CARBOXYLIC ACID DERIVATIVE-SUBSTITUTED IMINO ARYL COMPOUND, PREPARATION METHOD THEREFOR, HERBICIDAL COMPOSITION AND USE THEREOF” (Qingdao Kingagroot Chemical Compound Co., Ltd., priority 2020, published 2023):

Legend:
Type in all cases: in vivo
Capsella bursa-pastoris = experiment: Weeding effect in pre-emergence stage; details: 30 g/ha, 4 weeks
Description: (§1) The activity level criteria for plant damage (i.e., growth control rate) are as follows:
(§2) The aforementioned seeds of monocotyledonous and dicotyledonous weeds and main crops were put into a plastic pot loaded with soil and covered with 0.5-2 cm soil. The test compounds of the present invention was dissolved with acetone, then added with tween 80, diluted by a certain amount of water to reach a certain concentration, and sprayed immediately after sowing. The obtained seeds were incubated for 4 weeks in the greenhouse after spraying and the test results were observed. It was observed that the herbicide mostly had excellent effect at the application rate of 500, 250, 125, 60, 30, 15, 7.5 g/ha, especially to weeds such as Echinochloa crusgalli. Digitaria sanguinalis and Abutilon theophrasti, etc. And many compounds had good selectivity for corn, cotton, wheat, rice, soybean, and peanut etc. In addition, evaluate the weed control effect with the above activity standard level.

Abutilon theophrasti [1] = experiment: Weeding effect in pre-emergence stage; details: 30 g/ha, 4 weeks
Description: as §1, §2

Veronica didyma Tenore = experiment: Weeding effect in pre-emergence stage; details: 30 g/ha, 4 weeks
Description: as §1, §2

Descurainia sophia = experiment: Weeding effect in pre-emergence stage; details: 30 g/ha, 4 weeks
Description: as §1, §2

Amaranthus retroflexus = experiment: Weeding effect in pre-emergence stage; details: 30 g/ha, 4 weeks
Description: as §1, §2

Setaria viridis [2] = experiment: Weeding effect in pre-emergence stage; details: 30 g/ha, 4 weeks
Description: as §1, §2

Abutilon theophrasti [3] = experiment: Weeding effect in post-emergence stage; details: Dose 15 g/ha; level of fresh weight growth control rate
Summary of the method: (§3)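 Pot-grown weeds were sprayed at the 2-3 leaf stage, 2 weeks after sowing, with compound in acetone plus Tween 80 and 1.5 liter/ha methyl oleate emulsifiable concentrate, diluted in water. Doses were 500, 250, 125, 60, 30, 15, 7.5 g/ha. Growth control was scored after 3 weeks in greenhouse; mean of three replicates.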

Alopecurus japonicus = experiment: Weeding effect in post-emergence stage; details: Dose 15 g/ha; level of fresh weight growth control rate
Summary of the method: as §3

Digitaria sanguinalis = experiment: Weeding effect in post-emergence stage; details: Dose 15 g/ha; level of fresh weight growth control rate
Summary of the method: as §3

Setaria viridis [4] = experiment: Weeding effect in post-emergence stage; details: Dose 15 g/ha; level of fresh weight growth control rate
Summary of the method: as §3

Eleusine indica = experiment: Weeding effect in post-emergence stage; details: Dose 15 g/ha; level of fresh weight growth control rate
Summary of the method: as §3

Echinochloa crusgalli = experiment: Weeding effect in post-emergence stage; details: Dose 15 g/ha; level of fresh weight growth control rate
Summary of the method: as §3

cotton = experiment: Pre-emergence stage, crop selectivity; details: 30 g/ha, 4 weeks
Description: as §1, §2

Soybeans = experiment: Pre-emergence stage, crop selectivity; details: 30 g/ha, 4 weeks
Description: as §1, §2

Peanut = experiment: Pre-emergence stage, crop selectivity; details: 30 g/ha, 4 weeks
Description: as §1, §2

corn = experiment: Pre-emergence stage, crop selectivity; details: 30 g/ha, 4 weeks
Description: as §1, §2

Compound | activity level (growth control rate) Capsella bursa-pastoris (Capsella bursa-pastoris) | activity level (growth control rate) Abutilon theophrasti (Abutilon theophrasti [1]) | activity level (growth control rate) Veronica didyma Tenore (Veronica didyma Tenore) | activity level (growth control rate) Descurainia sophia (Descurainia sophia) | activity level (growth control rate) Amaranthus retroflexus (Amaranthus retroflexus) | activity level (growth control rate) Setaria viridis (Setaria viridis [2]) | Weeding effect in post-emergence stage, Abutilon theophrasti (Abutilon theophrasti [3]) | Weeding effect in post-emergence stage, Alopecurus japonicus (Alopecurus japonicus) | Weeding effect in post-emergence stage, Digitaria sanguinalis (Digitaria sanguinalis) | Weeding effect in post-emergence stage, Setaria viridis (Setaria viridis [4]) | Weeding effect in post-emergence stage, Eleusine indica (Eleusine indica) | Weeding effect in post-emergence stage, Echinochloa crusgalli (Echinochloa crusgalli) | plant damage level Cotton (cotton) | plant damage level Soybeans (Soybeans) | plant damage level Peanut (Peanut) | plant damage level Corn (corn)
C[C@@H](O/N=C/c1cc(-n2c(=O)cc(C(F)(F)F)n(C)c2=O)c(F)cc1Cl)C(=O)OCc1ccccc1 [283(R)] | 5 (Level 5: growth control rate is above 85%) | 5 (Level 5: growth control rate is above 85%) | 5 (Level 5: growth control rate is above 85%) | 5 (Level 5: growth control rate is above 85%) | 5 (Level 5: growth control rate is above 85%) | 5 (Level 5: growth control rate is above 85%) | 5 (Level 5: growth control rate is above 85%) | 5 (Level 5: growth control rate is above 85%) | 5 (Level 5: growth control rate is above 85%) | 5 (Level 5: growth control rate is above 85%) | 5 (Level 5: growth control rate is above 85%) | 5 (Level 5: growth control rate is above 85%) | 0 (Level 0: growth control rate is less than 5%) | 0 (Level 0: growth control rate is less than 5%) | 0 (Level 0: growth control rate is less than 5%) | 0 (Level 0: growth control rate is less than 5%)
C[C@@H](O/N=C/c1cc(-n2c(=O)cc(C(F)(F)F)n(C)c2=O)c(F)cc1Cl)C(=O)OCc1ccccn1 [301(R)] | 5 (Level 5: growth control rate is above 85%) | 5 (Level 5: growth control rate is above 85%) | 5 (Level 5: growth control rate is above 85%) | 5 (Level 5: growth control rate is above 85%) | 5 (Level 5: growth control rate is above 85%) | 5 (Level 5: growth control rate is above 85%) | 5 (Level 5: growth control rate is above 85%) | 5 (Level 5: growth control rate is above 85%) | 5 (Level 5: growth control rate is above 85%) | 5 (Level 5: growth control rate is above 85%) | 5 (Level 5: growth control rate is above 85%) | 5 (Level 5: growth control rate is above 85%) | 0 (Level 0: growth control rate is less than 5%) | 0 (Level 0: growth control rate is less than 5%) | 0 (Level 0: growth control rate is less than 5%) | 0 (Level 0: growth control rate is less than 5%)
CC[C@@H](O/N=C/c1cc(-n2c(=O)cc(C(F)(F)F)n(C)c2=O)c(F)cc1Cl)C(=O)OC [315(R)] | 5 (Level 5: growth control rate is above 85%) | 5 (Level 5: growth control rate is above 85%) | 5 (Level 5: growth control rate is above 85%) | 5 (Level 5: growth control rate is above 85%) | 5 (Level 5: growth control rate is above 85%) | 5 (Level 5: growth control rate is above 85%) | 5 (Level 5: growth control rate is above 85%) | 5 (Level 5: growth control rate is above 85%) | 5 (Level 5: growth control rate is above 85%) | 5 (Level 5: growth control rate is above 85%) | 5 (Level 5: growth control rate is above 85%) | 5 (Level 5: growth control rate is above 85%) | 0 (Level 0: growth control rate is less than 5%) | 0 (Level 0: growth control rate is less than 5%) | 0 (Level 0: growth control rate is less than 5%) | 0 (Level 0: growth control rate is less than 5%)
COC[C@@H](O/N=C/c1cc(-n2c(=O)cc(C(F)(F)F)n(C)c2=O)c(F)cc1Cl)C(=O)OC [333(R)] | 5 (Level 5: growth control rate is above 85%) | 5 (Level 5: growth control rate is above 85%) | 5 (Level 5: growth control rate is above 85%) | 5 (Level 5: growth control rate is above 85%) | 5 (Level 5: growth control rate is above 85%) | 5 (Level 5: growth control rate is above 85%) | 5 (Level 5: growth control rate is above 85%) | 5 (Level 5: growth control rate is above 85%) | 5 (Level 5: growth control rate is above 85%) | 5 (Level 5: growth control rate is above 85%) | 5 (Level 5: growth control rate is above 85%) | 5 (Level 5: growth control rate is above 85%) | 0 (Level 0: growth control rate is less than 5%) | 0 (Level 0: growth control rate is less than 5%) | 0 (Level 0: growth control rate is less than 5%) | 0 (Level 0: growth control rate is less than 5%)
COC(=O)[C@@H](C)O/N=C/c1cc(-n2c(=S)cc(C(F)(F)F)n(C)c2=O)c(F)cc1Cl [349(R)] | 5 (Level 5: growth control rate is above 85%) | 5 (Level 5: growth control rate is above 85%) | 5 (Level 5: growth control rate is above 85%) | 5 (Level 5: growth control rate is above 85%) | 5 (Level 5: growth control rate is above 85%) | 5 (Level 5: growth control rate is above 85%) | 5 (Level 5: growth control rate is above 85%) | 5 (Level 5: growth control rate is above 85%) | 5 (Level 5: growth control rate is above 85%) | 5 (Level 5: growth control rate is above 85%) | 5 (Level 5: growth control rate is above 85%) | 5 (Level 5: growth control rate is above 85%) | 0 (Level 0: growth control rate is less than 5%) | 0 (Level 0: growth control rate is less than 5%) | 0 (Level 0: growth control rate is less than 5%) | 0 (Level 0: growth control rate is less than 5%)
